From patent US8518912B2, “Phosphonic acid derivates and their use as P2Y12 receptor antagonists” (Actelion Pharmaceuticals Ltd., priority 2008, dated 2013)

These compounds were tested against T1, human P2Y12 receptor (Homo sapiens, UniProt Q9H244) (assay: P2Y12 receptor binding assay). Conditions: CHO cells with recombinant human P2Y12 receptor; tritium-labeled 2-methyl-S-ADP; 2 hours at RT.
T1 construct: expressed in transfected cells; host or cells: Chinese Hamster Ovary (CHO) cells
Protocol: Chinese Hamster Ovary (CHO) cells with recombinant expression of the human P2Y12 receptor were cultured in 24 well cell-culture plates. Cells were washed three times with binding buffer (50 mM Tris pH 7.4, 100 mM NaCl, […], 0.5% BSA). The cells were then incubated with 0.5 ml per well binding buffer containing tritium-labeled 2-methyl-thio-adenosine 5′-diphosphate (2-methyl-S-ADP) (between 100,000 and 300,000 dpm per well) and various concentrations of test compounds. After incubation at RT for 2 hours, cells were washed three times with binding buffer. Then, cells were solubilized by addition of 0.5 ml solubilization buffer (SDS, NaOH, EDTA). The content of each well was then transferred into beta-counter vials and 2.0 ml of Ultima Gold Scintillation liquid was added.

T1 sequence (Q9H244 whole entry): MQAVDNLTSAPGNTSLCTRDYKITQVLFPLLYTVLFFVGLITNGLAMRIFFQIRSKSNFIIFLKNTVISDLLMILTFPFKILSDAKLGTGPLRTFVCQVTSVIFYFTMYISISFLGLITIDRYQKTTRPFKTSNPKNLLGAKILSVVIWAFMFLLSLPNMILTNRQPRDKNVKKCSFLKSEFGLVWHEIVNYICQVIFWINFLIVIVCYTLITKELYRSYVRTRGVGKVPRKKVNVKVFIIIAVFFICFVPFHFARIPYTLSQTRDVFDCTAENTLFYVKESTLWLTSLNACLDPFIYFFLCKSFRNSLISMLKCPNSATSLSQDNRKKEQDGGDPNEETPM

`CCCCOC(=O)N1CCN(C(=O)[C@H](CP2(=O)Nc3ccccc3CO2)NC(=O)c2cc(N3CC[C@H](OC)C3)nc(-c3ccccc3)n2)CC1` (mixture of isomers) [Example 103, 4-[(R)-2-{[6-((S)-3-Methoxy-pyrrolidin-1-yl)-2-phenyl-pyrimidine-4-carbonyl]-amino}-3-(2-oxo-1,4-dihydro-2H-2λ^5-benzo[d][1,3,2]oxazaphosphinin-2-yl)-propionyl]-piperazine-1-carboxylic acid butyl ester] and `CCCCOC(=O)N1CCN(C(=O)[C@H](CP2(=O)OCc3cccc(C)c3O2)NC(=O)c2cc(N3CC[C@H](OC)C3)nc(-c3ccccc3)n2)CC1` (mixture of isomers) [Example 110, 4-[(R)-2-{[6-((S)-3-Methoxy-pyrrolidin-1-yl)-2-phenyl-pyrimidine-4-carbonyl]-amino}-3-(8-methyl-2-oxo-4H-2λ^5-benzo[1,3,2]dioxaphosphinin-2-yl)-propionyl]-piperazine-1-carboxylic acid butyl ester] are within 1.5-fold of each other in IC50: 3.1 nM for the first, 2.8 nM for the second.

Going from `CCCCOC(=O)N1CCN(C(=O)[C@H](CP(=O)(O)OCOC(C)=O)NC(=O)c2cc(N3CC[C@H](OC)C3)nc(-c3ccccc3)n2)CC1` (mixture of isomers) [Example 115, 4-((R)-3-(Acetoxymethoxy-hydroxy-phosphoryl)-2-{[6-((S)-3-methoxy-pyrrolidin-1-yl)-2-phenyl-pyrimidine-4-carbonyl]-amino}-propionyl)-piperazine-1-carboxylic acid butyl ester] to `CCCCOC(=O)N1CCN(C(=O)[C@@H](CCCP(=O)(O)O)NC(=O)c2cc(N3CC[C@H](OC)C3)nc(-c3ccccc3)n2)CC1` [Example 63, 4-((R)-2-{[6-((S)-3-Methoxy-pyrrolidin-1-yl)-2-phenyl-pyrimidine-4-carbonyl]-amino}-5-phosphono-pentanoyl)-piperazine-1-carboxylic acid butyl ester], the IC50 rises from 5 nM to 69 nM (14-fold). The first is the more potent here.

Compared with `CCCCOC(=O)N1CCN(C(=O)[C@H](CCP(=O)(O)O)NC(=O)c2cc(-n3cccn3)nc(-c3ccccc3)n2)CC1` [Example 7, 4-{(S)-2-[(2-phenyl-6-pyrazol-1-yl-pyrimidine-4-carbonyl)-amino]-4-phosphono-butyryl}-piperazine-1-carboxylic acid butyl ester], `CCCCOC(=O)N1CCN(C(=O)[C@H](CCP(=O)(O)O)NC(=O)c2cc(N3CCOCC3)nc(-c3ccccc3)n2)CC1` [Example 12, 4-{(S)-2-[(6-morpholin-4-yl-2-phenyl-pyrimidine-4-carbonyl)-amino]-4-phosphono-butyryl}-piperazine-1-carboxylic acid butyl ester] is 1.8-fold higher in IC50: 3.2 nM for the first, 5.9 nM for the second. The first is the more potent here.

Compared with `CCCCOC(=O)N1CCN(C(=O)[C@H](CP(=O)(O)O)NC(=O)c2cc(NCC)nc(-c3ccccc3)n2)CC1` [Example 16, 4-{(R)-2-[(6-ethylamino-2-phenyl-pyrimidine-4-carbonyl)-amino]-3-phosphono-propionyl}-piperazine-1-carboxylic acid butyl ester], `CCCCOC(=O)N1CCN(C(=O)[C@H](CP(=O)(O)O)NC(=O)c2cc(C3CC3)nc(-c3ccccc3)n2)CC1` [Example 35, 4-{(R)-2-[(6-cyclopropyl-2-phenyl-pyrimidine-4-carbonyl)-amino]-3-phosphono-propionyl}-piperazine-1-carboxylic acid butyl ester] is 3.1-fold higher in IC50: 4.5 nM for the first, 14 nM for the second. The first is the more potent here.

First: CCCCOC(=O)N1CCN(C(=O)[C@H](CCP(=O)(O)O)NC(=O)c2cc(N3CC[C@H](OC)C3)nc(-c3cccc(F)c3)n2)CC1 [Example 21, 4-((S)-2-{[2-(3-fluoro-phenyl)-6-((S)-3-methoxy-pyrrolidin-1-yl)-pyrimidine-4-carbonyl]-amino}-4-phosphono-butyryl)-piperazine-1-carboxylic acid butyl ester]
Second: CCCCOC(=O)N1CCN(C(=O)C(NC(=O)c2cc(N3CC[C@H](OC)C3)nc(-c3ccccc3)n2)P(=O)(O)O)CC1 (stereo partly drawn) [Example 56, 4-(2-{[6-((S)-3-methoxy-pyrrolidin-1-yl)-2-phenyl-pyrimidine-4-carbonyl]-amino}-2-phosphono-acetyl)-piperazine-1-carboxylic acid butyl ester]
The IC50 of the first is 2.1-fold lower: 78 nM for the first, 162 nM for the second.

Compared with `CCCCOC(=O)N1CCN(C(=O)[C@H](CP(=O)(O)O)NC(=O)c2cc(-c3ccc(OC)cc3)nc(-c3ccccc3)n2)CC1` [Example 34, 4-((R)-2-{[6-(4-methoxy-phenyl)-2-phenyl-pyrimidine-4-carbonyl]-amino}-3-phosphono-propionyl)-piperazine-1-carboxylic acid butyl ester], `CCCCOC(=O)N1CCN(C(=O)[C@H](CP(=O)(O)O)NC(=O)c2cc(CCCOC)nc(-c3ccccc3)n2)CC1` [Example 45, 4-((R)-2-{[6-(3-methoxy-propyl)-2-phenyl-pyrimidine-4-carbonyl]-amino}-3-phosphono-propionyl)-piperazine-1-carboxylic acid butyl ester] is 2.4-fold lower in IC50: 13 nM for the first, 5.5 nM for the second.

Going from `CCCCOC(=O)N1CCN(C(=O)[C@H](CP(=O)(O)O)NC(=O)c2cc(O[C@H]3CCOC3)nc(-c3ccccc3)n2)CC1` [Example 37, 4-[(R)-2-({2-phenyl-6-[(S)-(tetrahydro-furan-3-yl)oxy]-pyrimidine-4-carbonyl}-amino)-3-phosphono-propionyl]-piperazine-1-carboxylic acid butyl ester] to `CCCCOC(=O)N1CCN(C(=O)[C@H](CP(=O)(O)O)NC(=O)c2cc(N3CCN(C)CC3)nc(-c3ccccc3)n2)CC1` [Example 73, 4-((R)-2-{[6-(4-Methyl-piperazin-1-yl)-2-phenyl-pyrimidine-4-carbonyl]-amino}-3-phosphono-propionyl)-piperazine-1-carboxylic acid butyl ester], the IC50 falls from 78 nM to 3 nM (26-fold).

Going from `CCOC(=O)N1CCN(C(=O)[C@H](CP(=O)(O)O)NC(=O)c2cc(N3CC[C@H](OC)C3)nc(-c3ccccc3)n2)CC1C` (stereo partly drawn) [Example 38, 4-((R)-2-{[6-((S)-3-methoxy-pyrrolidin-1-yl)-2-phenyl-pyrimidine-4-carbonyl]-amino}-3-phosphono-propionyl)-2-methyl-piperazine-1-carboxylic acid ethyl ester] to `CCOC(=O)N1CCN(C(=O)[C@H](Cc2cccc(P(=O)(O)O)c2)NC(=O)c2cc(N3CC[C@H](OC)C3)nc(-c3ccccc3)n2)CC1` [Example 67, 4-[(S)-2-{[6-((S)-3-Methoxy-pyrrolidin-1-yl)-2-phenyl-pyrimidine-4-carbonyl]-amino}-3-(3-phosphono-phenyl)-propionyl]-piperazine-1-carboxylic acid ethyl ester], the IC50 falls from 61 nM to 13 nM (4.7-fold).

Compared with `CCCCOC(=O)N1CCN(C(=O)[C@H](CCP(=O)(OCOC(=O)C(C)(C)C)OCOC(=O)C(C)(C)C)NC(=O)c2cc(N3CC[C@H](OC)C3)nc(-c3ccccc3)n2)CC1` [Example 48, 4-((S)-4-[bis-(2,2-dimethyl-propionyloxymethoxy)-phosphoryl]-2-{[6-((S)-3-methoxy-pyrrolidin-1-yl)-2-phenyl-pyrimidine-4-carbonyl]-amino}-butyryl)-piperazine-1-carboxylic acid butyl ester], `CCCCOC(=O)N1CCN(C(=O)[C@H](CP(=O)(OCOC(=O)CCC)OCOC(=O)CCC)NC(=O)c2cc(N3CC[C@H](OC)C3)nc(-c3ccccc3)n2)CC1` [Example 78, 4-((R)-3-(Bis-butyryloxymethoxy-phosphoryl)-2-{[6-((S)-3-methoxy-pyrrolidin-1-yl)-2-phenyl-pyrimidine-4-carbonyl]-amino}-propionyl)-piperazine-1-carboxylic acid butyl ester] is 7-fold lower in IC50: 49 nM for the first, 7 nM for the second.

First: CCOC(=O)N1CCN(C(=O)[C@H](Cc2ccc(CP(=O)(O)O)cc2)NC(=O)c2cc(N3CC[C@H](OC)C3)nc(-c3ccccc3)n2)CC1 [Example 61, 4-[(S)-2-{[6-((S)-3-Methoxy-pyrrolidin-1-yl)-2-phenyl-pyrimidine-4-carbonyl]-amino}-3-(4-phosphonomethyl-phenyl)-propionyl]-piperazine-1-carboxylic acid ethyl ester]
Second: CCCCOC(=O)N1CCN(C(=O)C(NC(=O)c2cc(N3CC[C@H](OC)C3)nc(-c3ccccc3)n2)c2cccc(P(=O)(O)O)c2)CC1 (stereo partly drawn) [Example 71, 4-[2-{[6-((S)-3-Methoxy-pyrrolidin-1-yl)-2-phenyl-pyrimidine-4-carbonyl]-amino}-2-(3-phosphono-phenyl)-acetyl]-piperazine-1-carboxylic acid butyl ester]
The IC50 of the first is 1.7-fold higher: 7.5 nM for the first, 4.5 nM for the second.

First: CCCCOC(=O)N1CCN(C(=O)[C@H](CCP(=O)(NCC(=O)OCC)NCC(=O)OCC)NC(=O)c2cc(N3CC[C@H](OC)C3)nc(-c3ccccc3)n2)CC1 [Example 75, N,N′-Bis-(ethoxycarbonylmethyl)-3-{(S)-[6-((S)-3-methoxy-pyrrolidin-1-yl)-2-phenyl-pyrimidine-4-carbonyl]-amino}-4-oxo-4-(4-butoxy-carbonyl-piperazin-1-yl)-butyl-phosphonic acid diamide]
Second: CCCCOC(=O)N1CCN(C(=O)[C@H](CP(=O)(N[C@@H](Cc2ccccc2)C(=O)OC)N[C@@H](Cc2ccccc2)C(=O)OC)NC(=O)c2cc(N3CC[C@H](OC)C3)nc(-c3ccccc3)n2)CC1 [Example 87, N,N′-Bis-((S)-1-methoxycarbonyl-2-phenyl-ethyl)-2-{(R)-[6-((S)-3-methoxy-pyrrolidin-1-yl)-2-phenyl-pyrimidine-4-carbonyl]-amino}-3-oxo-3-(4-butoxy-carbonyl-piperazin-1-yl)-propyl-phosphonic acid diamide]
The IC50 of the first is 28-fold higher: 308 nM for the first, 11 nM for the second. The second is the more potent here.
